# Results taken from patent US10005756B2, “Pyrrolidinone derivatives as MetAP-2 inhibitors” (Merck Patent GmbH, priority 2014, dated 2018).
# System: human umbilical vein endothelial cells (HUVEC)
# Experiment: HUVEC proliferation quantified by BrdU incorporation
# Format: cell-based
# Details: HUVEC, read-out: IC50 HUVEC
# Description: Determination of the Proliferation Inhibition by Inhibitors of Methionine Aminopeptidase 2 in the BrdU Proliferation Test (Cellular Assay)
# After detachment of the cells by means of trypsin/EDTA, the number of living cells is determined, and the cells are sown in a density of 1000 cells per cavity in a total volume of 175 μl (cavities are coated in advance either with supplemented culture medium for 1-2 hours at 37° C. or with 1.5% gelatine for 0.5-2 hours at 37° C.). After cultivation for 24 hours, the test substances are added in various concentrations (for example final concentrations 30 μM to 0.03 nM in 10-fold dilution steps) and a volume of 25 μl. The DMSO concentration is kept constant at 0.3%. […] To this end, the cells are treated with a fixative for 30 min at room temperature and subsequently incubated with a peroxidase-labelled anti-BrdU antibody (diluted 1:100 in antibody dilution buffer) for 60 min at room temperature. […] The colour development is stopped after 15 min by addition of 25 μl of a 1M sulfuric acid solution. […] The controls used are cavities containing DMSO-treated cells (100% control) or empty cavities (blank value).
# HUVEC Proliferation Quantified by BrdU Incorporation
# HUVEC Means Human Umbilical Vein Endothelial Cells
# HUVEC proliferation is measured after a 5 day incubation period using incorporation of BrdU as a measure of cell cycle activity. Cells are incubated in the presence or absence of test substances. During the last 18 to 24 hours of the incubation period BrdU is added to the medium. BrdU is incorporated into the DNA as the cells progress through S-phase (DNA synthesis) of the cell cycle. The cells are fixed and the amount of BrdU incorporated can be quantified using a commercial ELISA for detection of BrdU.
# HUVEC are routinely cultured in EGM MV medium and used between passages 3 and 8.
# All substances are run in triplicate.
# Reference compounds are run in every assay.
# Data is analyzed using the Assay Explorer program. Briefly, the blank is subtracted from all values, the triplicates are averaged and normalized to the untreated. EC50 is determined from a 4-parameter general sigmoidal curve (Hill fit y=(s0−slnf)/(1+(x/AC50)^nHill)+slnf) in Assay Explorer, Symyx). The processed data (EC50 or % Effect if no EC50 if reached, Efficacy) is uploaded directly from Assay Explorer to the MSRDB.
row,Structure (SMILES),IC50 [nM]
1,"O=C(NCc1cc(F)cc(F)c1)[C@@]1(O)CCN(c2ccc3[nH]ncc3c2)C1=O [Compound A75, (S)-3-Hydroxy-1-(1H-indazol-5-yl)-2-oxo-pyrrolidine-3-carboxylic acid 3,5-difluoro-benzylamide]",42
2,COc1ccc(Cn2ccc3cc(N4CC[C@](O)(C(=O)NCc5cc(F)cc(F)c5)C4=O)cnc32)cc1 [Compound A76],260
3,O=C(NCc1cc(F)cc(F)c1)[C@@]1(O)CCN(c2cnc3[nH]ccc3c2)C1=O [Compound A78],35
4,O=C(NCc1cc(F)cc(F)c1)[C@@]1(O)CCN(c2cnc3[nH]cc(Cl)c3c2)C1=O [Compound A79],6.5
5,C[S@](=N)(=O)c1cccc(N2CC[C@](O)(C(=O)NCc3cc(F)cc(Cl)c3)C2=O)c1 [Compound A81],540
6,C[S@@](=N)(=O)c1cccc(N2CC[C@](O)(C(=O)NCc3cc(F)cc(Cl)c3)C2=O)c1 [Compound A82],310
7,NC(=O)c1ccc2cc(N3CCC(O)(C(=O)NCc4cc(F)cc(Cl)c4)C3=O)ccc2n1 (stereo not shown) [Compound A83],500
8,O=C(NCc1cc(F)cc(Cl)c1)[C@@]1(O)C(=O)N(c2ccccc2)C[C@@H]1O [Compound A87],2300
9,O=C(NCc1cc(F)cc(F)c1)[C@@]1(O)CCN(c2cnc3[nH]cc(F)c3c2)C1=O [Compound A89],32

# Same assay, conditions: HUVEC, reference compounds run in every assay, expected value, read-out: expected value (EC50) of reference compound
row,Structure (SMILES),EC50 [nM]
1,"CO[C@@H]1[C@H](OC(=O)NC(=O)CCl)CC[C@]2(CO2)[C@H]1[C@@]1(C)O[C@@H]1CC=C(C)C [MSC1902850A, TNP-470, reference compound]",0.8
